Key:
STAT3 = STAT3 transcription inhibition test (reporter gene method); format: cell-based; conditions: compound at 100 μM, STAT3 reporter HeLa stable cell line, oncostatin M 10 ng/mL, 4 hours; for inhibition at 100 µM: Homo sapiens, read-out: STAT3 transcription inhibitory activity (%)
Procedure: The inhibition of STAT3 transcription was evaluated by using STAT3 reporter HeLa stable cell line (Panomics Inc., catalog No. RC0003), a cell line for the reporter gene method, and performing the following method according to the appendix included therein.
STAT3, reporter HeLa stable cell line subcultured and maintained in a Dulbecco's modified Eagle's medium (DMEM) containing 10% fetal bovine serum, 100 units/mL penicillin, and 100 μg/mL streptomycin was inoculated at a concentration of 40000 cells/well to a 96-well plate (white) and attached to the plate by overnight incubation at 37° C. under 5% CO2. After addition of each evaluation compound adjusted to various concentrations (adjusted with a DMSO solution), the cells were precultured for 1 hour. Then, oncostatin M for activating STAT3 was added at a final concentration 10 ng/mL, and the cells were further cultured at 37° C. under 5% CO2 for 4 hours. Luciferase activity derived from the cells was determined using Steady-Glo Luciferase Assay System (Promega Corp.), and STAT3 transcriptional activity scores were calculated according to the following formula: STAT3 transcriptional activity score (%)=100×(Lchem−L0)/(LDMSO−L0) • L0: luminescence intensity obtained without stimulation with oncostatin M • Lchem: luminescence intensity obtained by the addition of a test sample • LDMSO: luminescence intensity obtained by the addition of only a solvent for dissolving a test sample
The test results were indicated in the rate of inhibition of STAT3 transcription by each compound at a concentration of 100 μM.

MDA-MB-468 = MDA-MB-468 cell growth inhibitory activity; format: cell-based; conditions: Homo sapiens; compound at 20 μM; MDA-MB-468, 72 hours
Procedure: MDA-MB-468 diluted with phenol red-free DMEM/F-12 (GIBCO; 10% FBS, 20 units/ml penicillin/streptomycin) was inoculated at a concentration of 2000 cells/well to a 96-well plate (Greiner Bio-One) and cultured overnight at 37° C. in the presence of 5% CO2. Then, a test sample solution (containing 2 (v/v)% DMSO) adjusted to 10 μM was added thereto at a concentration of 10 μL/well and contacted with the cells at 37° C. for 72 hours in the presence of 5% CO2. Each well was washed three times with a medium. Then, after addition of 100 μL/well of a medium and 20 μL/well of CellTiter 96 AQueous, One Solution Reagent (Promega Corp.), the cells were incubated at 37° C. for 2 hours in the presence of 5% CO2. Absorbance at 495 nm was measured using Multiplate reader (Molecular Devices, Inc.), and the rate of inhibition of cell growth was calculated according to the following formula: Rate of inhibition of cell growth (%)=100−100×(Abschem−bkgd)/(AbsDMSO−bkgd) • Abschem: absorbance obtained by the addition of a test sample • AbsDMSO: absorbance obtained by the addition of only a solvent for test sample dissolution • bkgd: absorbance obtained by the addition of CellTiter 96 AQueous One Solution Reagent to a medium for cell culture
The test results were indicated in the rate of inhibition of cell growth by each compound at a concentration of 20 μM.

Row | Structure (SMILES) | inhibition at 100 µM (STAT3) [%] | inhibition at 20 µM (MDA-MB-468) [%] | STAT3 transcription inhibitory activity (%) (STAT3)
1 | O=C(Nc1nnc(-c2ccco2)o1)c1cccc(-c2ccccc2)c1 [Compound Ia-1, N-[5-(2-Furyl)-1,3,4-oxadiazol-2-yl]-3-biphenylcarboxamide] | 60 |  | 
2 | O=C(Nc1nnc(-c2ccco2)o1)c1cccc(-c2cccc([N+](=O)[O-])c2)c1 [Compound Ia-5, N-[5-(2-Furyl)-1,3,4-oxadiazol-2-yl]-3′-nitro-3-biphenylcarboxamide] | 98 | 88 | 
3 | O=C(Nc1nnc(-c2ccco2)o1)c1cccc(-c2ccc(F)cc2)c1 [Compound Ia-10, 4′-Fluoro-N-[5-(2-furyl)-1,3,4-oxadiazol-2-yl]-3-biphenylcarboxamide] | 97 |  | 
4 | Cc1ccc(-c2cccc(C(=O)Nc3nnc(-c4ccco4)o3)c2)cc1 [Compound Ia-12, N-[5-(2-Furyl)-1,3,4-oxadiazol-2-yl]-4′-methyl-3-biphenylcarboxamide] | 83 | 61 | 
5 | COc1ccc(-c2cccc(C(=O)Nc3nnc(-c4ccco4)o3)c2)cc1 [Compound Ia-16, N-[5-(2-Furyl)-1,3,4-oxadiazol-2-yl]-4′-methoxy-3-biphenylcarboxamide] | 57 |  | 
6 | O=C(Nc1nnc(-c2ccco2)o1)c1cccc(-c2ccc(C(=O)c3ccccc3)cc2)c1 [Compound Ia-19, 4′-Benzoyl-N-[5-(2-furyl)-1,3,4-oxadiazol-2-yl]-3-biphenylcarboxamide] | 55 | 94 | 
7 | O=C(Nc1nnc(-c2ccco2)o1)c1cccc(-c2ccc([N+](=O)[O-])cc2)c1 [Compound Ia-24, N-[5-(2-Furyl)-1,3,4-oxadiazol-2-yl]-4′-nitro-3-biphenylcarboxamide] | 94 | 97 | 
8 | Cc1cc(C#N)ccc1-c1cccc(C(=O)Nc2nnc(-c3ccco3)o2)c1 [Compound Ia-29, 4′-Cyano-N-[5-(2-furyl)-1,3,4-oxadiazol-2-yl]-2′-methyl-3-biphenylcarboxamide] | 81 | 87 | 
9 | O=C(Nc1nnc(-c2ccco2)o1)c1cccc(-c2ccc3ccccc3c2)c1 [Compound Ia-33, N-[5-(2-Furyl)-1,3,4-oxadiazol-2-yl]-3-(2-naphthyl)benzenecarboxamide] | 90 | 98 | 
10 | Cc1ccc(-c2cccc(C(=O)Nc3nnc(-c4ccco4)o3)c2)o1 [Compound Ia-34, N-[5-(2-Furyl)-1,3,4-oxadiazol-2-yl]-3-(5-methyl-2-furyl)benzenecarboxamide] | 78 |  | 
11 | O=C(Nc1nnc(-c2ccco2)o1)c1cccc(-c2ccc3c(c2)OCO3)c1 [Compound Ia-42, N-[5-(2-Furyl)-1,3,4-oxadiazol-2-yl]-3-(3,4-methylenedioxyphenyl)benzenecarboxamide] | 88 |  | 
12 | O=C(Nc1nnc(-c2ccco2)o1)c1cccc(-c2ccc3sccc3c2)c1 [Compound Ia-47, 3-(5-Benzothienyl)-N-[5-(2-furyl)-1,3,4-oxadiazol-2-yl]benzenecarboxamide] | 58 | 53 | 
13 | Cn1ccc2cc(-c3cc(F)cc(C(=O)Nc4nnc(-c5ccco5)o4)c3)ccc21 [Compound Ia-52, 5-Fluoro-N-[5-(2-furyl)-1,3,4-oxadiazol-2-yl]-3-(1-methyl-5-indolyl)benzenecarboxamide] | 71 | 91 | 
14 | O=C(Nc1nnc(-c2ccco2)o1)c1cc(-c2ccc(Cl)cc2)nc(-c2ccc(Br)cc2)c1 [Compound Ia-56, 2-(4-Bromophenyl)-6-(4-chlorophenyl)-N-[5-(2-furyl)-1,3,4-oxadiazol-2-yl]-4-pyridinecarboxamide] | 87 | 61 | 
15 | C[Si](C)(C)c1ccc(-c2cccc(C(=O)Nc3nnc(-c4ccco4)o3)c2)cc1 [Compound Ia-62, N-[5-(2-Furyl)-1,3,4-oxadiazol-2-yl]-4′-trimethylsilyl-3-biphenylcarboxamide] | 76 | 71 | 
16 | O=C(Nc1nnc(-c2ccco2)o1)c1cccc(-c2ccc(Oc3ccccc3)cc2)c1 [Compound Ia-66, N-[5-(2-Furyl)-1,3,4-oxadiazol-2-yl]-4′-phenoxy-3-biphenylcarboxamide] | 58 | 59 | 
17 | COC(=O)c1ccc(-c2cccc(C(=O)Nc3nnc(-c4ccco4)o3)c2)cc1 [Compound Ia-69, N-[5-(2-Furyl)-1,3,4-oxadiazol-2-yl]-4′-methoxycarbonyl-3-biphenylcarboxamide] | 53 | 69 | 
18 | O=C(Nc1nnc(-c2ccco2)o1)c1cccc(-c2ccc(-c3ccc(Cl)cc3)cc2)c1 [Compound Ia-77, 4″-Chloro-N-[5-(2-furyl)-1,3,4-oxadiazol-2-yl]-3-(p-terphenyl)carboxamide] | 80 | 76 | 
19 | CC(C)Oc1ccc(-c2ccc(-c3cccc(C(=O)Nc4nnc(-c5ccco5)o4)c3)cc2)cc1 [Compound Ia-81, N-[5-(2-Furyl)-1,3,4-oxadiazol-2-yl]-4″-isopropoxy-3-(p-terphenyl)carboxamide] | 63 | 78 | 
20 | O=C(Nc1nnc(-c2ccco2)o1)c1cccc(-c2ccc(-c3cccc4ccccc34)cc2)c1 [Compound Ia-82, N-[5-(2-Furyl)-1,3,4-oxadiazol-2-yl]-4′-(1-naphthyl)-3-biphenylcarboxamide] | 54 | 75 | 
21 | O=C(Nc1nnc(-c2ccco2)o1)c1cccc(-c2ccc(CCN3CCOCC3)cc2)c1 [Compound Ia-90, N-[5-(2-Furyl)-1,3,4-oxadiazol-2-yl]-4′-(2-morpholinoethyl)-3-biphenylcarboxamide] | 97 |  | 
22 | O=C(Nc1nnc(-c2ccco2)o1)c1cccc(-c2cnc3ccccc3c2)c1 [Compound Ia-99, N-[5-(2-Furyl)-1,3,4-oxadiazol-2-yl]-3-(3-quinolyl)benzenecarboxamide] | 78 | 55 | 
23 | O=C(Nc1nnc(-c2ccco2)o1)c1cc(-c2cccc(Cl)c2)nc2nc(N3CCCCC3)sc12 [Compound Ib-2, 5-(3-Chlorophenyl)-N-[5-(2-furyl)-1,3,4-oxadiazol-2-yl]-2-piperidino-7-thiazolo[4,5-b]pyridinecarboxamide] | 68 | > 100 | 
24 | O=C(Nc1nnc(-c2ccco2)o1)c1ccc(-c2cccc(Cl)c2)o1 [Compound Ic-4, 5-(3-Chlorophenyl)-N-[5-(2-furyl)-1,3,4-oxadiazol-2-yl]-2-furancarboxamide] | 81 |  | 
25 | CCOC(=O)c1ccc(-c2ccc(C(=O)Nc3nnc(-c4ccco4)o3)o2)cc1 [Compound Ic-12, 5-(4-Ethoxycarbonylphenyl)-N-[5-(2-furyl)-1,3,4-oxadiazol-2-yl]-2-furancarboxamide] | 73 |  | 
26 | O=C(Nc1nnc(-c2ccco2)o1)c1ccc(-c2ccc([N+](=O)[O-])cc2Cl)o1 [Compound Ic-14, 5-(2-Chloro-4-nitrophenyl)-N-[5-(2-furyl)-1,3,4-oxadiazol-2-yl]-2-furancarboxamide] | 51 |  | 
27 | O=C(Nc1nnc(-c2ccco2)o1)c1ccc(-c2cc([N+](=O)[O-])ccc2Cl)o1 [Compound Ic-19, 5-(2-Chloro-5-nitrophenyl)-N-[5-(2-furyl)-1,3,4-oxadiazol-2-yl]-2-furancarboxamide] | 56 |  | 
28 | O=C(Nc1nnc(-c2ccco2)o1)c1ccc(-c2cc(Cl)cc(Cl)c2)o1 [Compound Ic-21, 5-(3,5-Dichlorophenyl)-N-[5-(2-furyl)-1,3,4-oxadiazol-2-yl]-2-furancarboxamide] | 64 |  | 
29 | Cc1oc(-c2ccccc2)cc1C(=O)Nc1nnc(-c2ccco2)o1 [Compound Ic-22, N-[5-(2-Furyl)-1,3,4-oxadiazol-2-yl]-2-methyl-5-phenyl-3-furancarboxamide] | 65 |  | 
30 | O=C(Nc1nnc(-c2ccco2)o1)c1nc(-c2ccc(F)cc2)n2c1CCCCC2 [Compound Ic-26] |  |  | 58

Reference: patent US8796320B2, “1,3,4-Oxadiazole-2-carboxamide compound” (General Incorporated Association Pharma Valley Project …, priority 2009, dated 2014)
